# From patent publication EP0171342A1, “Substituted 2-(1-amino-akylidenyl)1,3-indane diones, process for their preparation and their therapeutical use” (priority 1984, dated 1986)
# Read-outs that look alike come from different tables or passages of the source.
# Legend:
# [1] = tested on: rat soumis à une surcharge hydrique; test: Diuretic activity in rats given a water overload, oral; assay type: in vivo; conditions: rat, water overload, oral; for response vs control in vivo at 20 mg/kg: read-out: facteur multipliant l'excrétion urinaire du sodium
# Procedure: (§1) L'activité diurétique a été déterminée sur plusieurs modèles expérimentaux. Chez le rat soumis à une surcharge hydrique, administrés par voie orale à la dose de 20 mg/kg, le COR3760, le COR3789, le COR3792, le COR4002, le COR4003, le COR4009, le COR4010, le COR4012 et le COR4014 multiplient l'excrétion urinaire du sodium par respectivement un facteur 2,9 - 3,1 - 5,9 - 2,6 - 7,2 - 3,5 - 3,8 - 2,9 - 2,4. Administrés à la dose de 10 mg/kg, dans les mêmes conditions, les COR3760, COR3789, COR3792, COR4003 et COR4010 multiplient l'excrétion sodique par respectivement 2,3 - 2,9 - 2,8 - 2,4 et 2,5. La spironolactone multiplie quant à elle l'excrétion sodique d'un facteur 3,6 à la dose de 20 mg/kg. Administré à la dose de 5 mg/kg dans les mêmes conditions, le COR3792 multiplie l'excrétion sodique par 3,3. Administré par voie orale chez le rat ou la souris soumis à une surcharge saline, le COR3760 augmente l'excrétion urinaire volumétrique mesurée à la sixième heure de respectivement 49, 119 et 134% chez la souris et 28, 84 et 116% chez le rat après administration de 10, 20, et 40 mg/kg. Le COR3760 a été administré par voie orale au rat soumis à une surcharge hydrique et l'excrétion urinaire volumétrique, le sodium et le potassium excrétés ont été mesurés sur une période de 6 heures; ces paramètres ont varié de respectivement +17%, +102%, +165% à 10 mg/kg, +19%, +147%, +180% à 20 mg/kg et +36%, +415% et +239% à 40 mg/kg; le rapport Na/K passe de 0,56 chez les animaux témoins à 0,4 à 10 mg/kg, 0,49 à 20 mg/kg et 0, 8 à 40 mg/ kg. Au cours d'une seconde expérimentation, le COR3760 a entrainé des variations de +19%, +157%, +70% à 40 mg/kg, +19%, +319%, +90% à 60 mg/kg et +29%, +472% et +77% à 80 mg/kg; le rapport Na/K passe de 0,59 chez les animaux témoins à 0,88 à 40, 1,15 à 60 et 1,88 à 80 mg/kg.
# [2] = tested on: rat Wistar soumis à une surcharge saline; test: Diuretic activity in selected Wistar rats given a saline overload (modified Wiebelhaus test); assay type: in vivo
# Procedure: L'activité diurétique des produits selon l'invention a été également déterminée chez le rat Wistar soumis à une surcharge saline selon une modification du test décrit par Wiebelhaus et coll., Fed. Proc., 1960, 19, 364, en procédant à une sélection des animaux. A la dose de 20 mg/kg, les COR4003, COR4008, COR4009, COR4010, COR4011, COR4012, COR4014, COR4016, COR4021, COR4025 augmentent l'excrétion urinaire volumétrique mesurée au bout de 6 heures de respectivement 56, 54, 65, 95, 73, 54, 33, 40, 99 et 92 %. L'excrétion urinaire du sodium augmente de respectivement 56, 24, 42, 59, 43, 33, 29, 43, 31, 83, 26, 99, 40 % toujours à cette dose pour les COR4003, COR4008, COR4009, COR4010, COR4011, COR4012, COR4014, COR4016, COR4017, COR4021, COR4023, COR4025 et COR4026. Le rapport Na/K demeure la plupart du temps inchangé. Testé dans les mêmes conditions le furosémide, administré à la dose de 20 mg/kg entraine 63% d'augmentation de l'excrétion urinaire volumétrique et 53% d'augmentation de l'excrétion urinaire du sodium.
# [3] = tested on: rat vigile spontanément hypertendu; test: Antihypertensive activity in conscious spontaneously hypertensive rats (indirect tail pressure); assay type: in vivo; conditions: SHR, oral, 100 mg/kg
# Procedure: L'activité antihypertensive a été appréciée chez le rat vigile spontanément hypertendu. La pression artérielle est mesurée de façon indirecte sur la queue 2, 4, 6 heures après l'administration par voie orale du produit à tester. Pour le COR4009, administré à la dose de 100 mg/kg, la réduction de pression est respectivement de 8, 13, 13% à ces échéances.
# souris [4] = test: Acute toxicity (mortality, LD50) in mice; assay type: in vivo; conditions: mouse
# souris [5] = test: Anticonvulsant activity: maximal electroshock convulsions in mice; assay type: in vivo; conditions: mouse, oral, 100 mg/kg, one hour after administration
# Source text: L'activité anticonvulsivante est appréciée dans le test de la prévention des convulsions induites par des électrochocs d'intensité maximale.
# [6] = tested on: oreillette gauche de cobaye; test: Calcium antagonist activity: electrically stimulated guinea pig left atrium; conditions: 150 beats/min, low-calcium (0,6 mM) Tyrode solution; read-out: concentration qui inhibe de 50% l'augmentation de la force de contraction induite par l'addition de 0,6 mM de calcium
# Procedure: L'activité anticalcique a été déterminée in vitro sur deux modèles expérimentaux.
# Sur oreillette gauche de cobaye stimulée électriquement à 150 battements/mn dans une solution de Tyrode pauvre en calcium (0,6 mM), les COR3789, COR3792, COR4009, COR4010 et COR4011 employés respectivement à 25, 100, 50, 10 et 25 microg/ml inhibent de 50% l'augmentation de la force de contraction induite par l'addition de 0,6 mM de calcium.
# souris [7] = test: Anticonvulsant activity: bicuculline-induced convulsions in mice; assay type: in vivo; conditions: mouse, i.p., 100 mg/kg
# Procedure: L'activité anticonvulsivante est également déterminée dans le test des inhibitions des convulsions induites par la bicuculline. Des souris reçoivent par voie intrapéritonéale le produit à tester, puis 30 mn et 5 heures plus tard, deux injections séparées de 0,5 mg de bicuculline. […] Les résultats de ce test sont le reflet d'une activité gabaergique directe.
# souris [8] = test: Antidepressant activity: inhibition of reserpine-induced ptosis in mice; assay type: in vivo; conditions: mouse, oral 200 mg/kg 90 min before reserpine 5 mg/kg i.p.; index 0 (maximum ptosis) to 6 (no ptosis)
# Procedure: (§2) L'activité antidépressive a été déterminée dans le test de potentialisation de la toxicité de la yohimbine et dans le test de l'inhibition du ptosis induit par la réserpine.
# (§3) On injecte par voie sous cutanée à des souris, lh avant l'administration par voie orale du produit à tester, une dose non léthale de yohimbine soit 15 mg/kg. Le COR3760 administré à la dose de 100 mg/kg entraine 80% de mortalité dans ces conditions. Des souris reçoivent par voie orale le produit à tester 90 mn avant l'injection par voie intrapéritonéale de 5 mg/kg de réserpine solubilisée. On cote le ptosis selon un index allant de 0 à 6, la cote 0 correspondant à un ptosis maximum et la cote 6 à l'absence de ptosis. Les COR3760 et COR4011 conduisent dans les conditions de l'expérience à un ptosis coté à 4 pour une dose de respectivement 200 et 50 mg/kg.
# [9] = tested on: poumon de cobaye isolé perfusé; test: Bronchodilator activity: isolated perfused guinea pig lung contracted by methacholine; conditions: flow of Tyrode solution, lung contracted by 0,05 microg/ml methacholine; read-out: concentration qui augmente ce débit de 50%
# Source text: L'activité bronchodilatatrice a été déterminée in vitro par la mesure du débit d'une solution de Tyrode à travers un poumon de cobaye isolé perfusé, contracté par l'addition au fluide de perfusion de 0,05 microg/ml de méthacholine. Les COR3760, COR3789, COR3792, COR4003, COR4008, COR4010 et COR4014 utilisés respectivement aux concentrations de 50, 50, 100, 10, 50, 50 et 10 microg/ml augmentent ce débit de 50%. L'aminophylline entraine cette même activité à la concentration de 100 microg/ml.
# [10] = tested on: segments d'iléon de cobaye isolés; test: Anticholinergic activity: acetylcholine-induced contractions of isolated guinea pig ileum; conditions: Cavia porcellus; contractions induced by 0,1 microg/ml acetylcholine; read-out: concentration qui inhibe ces contractions de 80%
# Source text: L'activité anticholinergique a été appréciée par la mesure des contractions induites par 0,1 microg/ml d'acétylcholine sur des segments d'iléon de cobaye isolés. Les COR3760, COR3789, COR3792, COR4003, COR4008, COR4010, COR4014 utilisés respectivement aux concentrations de 50, 25, 25, 50, 25, 10, 25 microg/ml inhibent ces contractions de 80%.
# [11] = tested on: rat soumis à une surcharge saline; test: Diuretic activity in rats given a saline overload, oral; assay type: in vivo
# Procedure: as §1
# [12] = tested on: souris soumis à une surcharge saline; test: Diuretic activity in mice given a saline overload, oral; assay type: in vivo; conditions: mouse
# Procedure: as §1
# [13] = Acute toxicity (mortality, LD50) in mice; assay type: in vivo; conditions: in vivo; mouse, oral, in solution in Tween 20%; read-out: DL50 (the source's name)
# souris [14] = test: Antidepressant activity: potentiation of yohimbine toxicity in mice; assay type: in vivo; conditions: mouse, yohimbine 15 mg/kg s.c. (non-lethal dose), test product oral 100 mg/kg
# Procedure: as §2, §3
# [15] = first experiment, 10 mg/kg, 6 hours
# [16] = first experiment, 20 mg/kg, 6 hours
# [17] = first experiment, 40 mg/kg, 6 hours
smiles,measurement,setting,value
"COCCNC(C)=C1C(=O)c2ccccc2C1=O [COR4009, ((Méthoxy-2 éthyl) amino-1 éthylidényl)-2 indanedione-1,3]",response vs control in vivo at 20 mg/kg,[1]; 20 mg/kg,350%
same,change in vivo at 20 mg/kg,"[2]; 6 h, read-out: augmentation de l'excrétion urinaire volumétrique mesurée au bout de 6 heures",65%
same,change in vivo at 20 mg/kg,[2]; read-out: augmentation de l'excrétion urinaire du sodium,42%
same,réduction de pression,[3]; 2 hours after administration,8%
same,réduction de pression,[3]; 4 hours after administration,13%
same,réduction de pression,[3]; 6 hours after administration,13%
same,mortalité,"souris [4]; intraperitoneal, 200 mg/kg",aucune mortalité
same,mortalité,"souris [4]; oral, 300 mg/kg",aucune mortalité
same,prévention des convulsions induites par des électrochocs d'intensité maximale,souris [5],on n'observe plus de convulsions
same,IC50,[6],50 µg/mL
same,inhibition des convulsions induites par la bicuculline,souris [7]; first bicuculline injection (30 min later),inhibe les convulsions induites par la première injection
same,inhibition des convulsions induites par la bicuculline,souris [7]; second bicuculline injection (5 hours later),sans inhiber celles induites par la deuxième
"CNC(C)=C1C(=O)c2ccccc2C1=O [COR3760, (Méthylamino-1 éthylidène)-2 indanedione-1,3]",rapport Na/K,"[1]; first experiment, 10 mg/kg (controls 0,56)","0,4"
same,variation de l'excrétion urinaire volumétrique,[1]; [15],+17%
same,variation du potassium excrété,[1]; [15],+165%
same,variation du sodium excrété,[1]; [15],+102%
same,rapport Na/K,"[1]; first experiment, 20 mg/kg (controls 0,56)","0,49"
same,variation de l'excrétion urinaire volumétrique,[1]; [16],+19%
same,variation du potassium excrété,[1]; [16],+180%
same,variation du sodium excrété,[1]; [16],+147%
same,variation de l'excrétion urinaire volumétrique,[1]; [17],+36%
same,variation du potassium excrété,[1]; [17],+239%
same,variation du sodium excrété,[1]; [17],+415%
same,facteur multipliant l'excrétion sodique,[1]; 10 mg/kg,"2,3"
same,response vs control in vivo at 20 mg/kg,[1]; 20 mg/kg,290%
same,variation de l'excrétion urinaire volumétrique,"[1]; second experiment, 40 mg/kg",+19%
same,variation du potassium excrété,"[1]; second experiment, 40 mg/kg",+70%
same,variation du sodium excrété,"[1]; second experiment, 40 mg/kg",+157%
same,rapport Na/K,"[1]; second experiment, 40 mg/kg (controls 0,59)","0,88"
same,variation de l'excrétion urinaire volumétrique,"[1]; second experiment, 60 mg/kg",+19%
same,variation du potassium excrété,"[1]; second experiment, 60 mg/kg",+90%
same,variation du sodium excrété,"[1]; second experiment, 60 mg/kg",+319%
same,rapport Na/K,"[1]; second experiment, 60 mg/kg (controls 0,59)","1,15"
same,variation de l'excrétion urinaire volumétrique,"[1]; second experiment, 80 mg/kg",+29%
same,variation du potassium excrété,"[1]; second experiment, 80 mg/kg",+77%
same,variation du sodium excrété,"[1]; second experiment, 80 mg/kg",+472%
same,rapport Na/K,"[1]; second experiment, 80 mg/kg (controls 0,59)","1,88"
same,ptosis coté,souris [8],4
same,EC50,[9],50 µg/mL
same,IC80,[10],50 µg/mL
same,augmentation de l'excrétion urinaire volumétrique mesurée à la sixième heure,[11]; 10 mg/kg,28%
same,augmentation de l'excrétion urinaire volumétrique mesurée à la sixième heure,[11]; 20 mg/kg,84%
same,augmentation de l'excrétion urinaire volumétrique mesurée à la sixième heure,[11]; 40 mg/kg,116%
same,augmentation de l'excrétion urinaire volumétrique mesurée à la sixième heure,[12]; 10 mg/kg,49%
same,augmentation de l'excrétion urinaire volumétrique mesurée à la sixième heure,[12]; 20 mg/kg,119%
same,augmentation de l'excrétion urinaire volumétrique mesurée à la sixième heure,[12]; 40 mg/kg,134%
same,LD50,[13],736 mg/kg
same,mortalité,"souris [4]; intraperitoneal, 200 mg/kg",aucune mortalité
same,mortalité,"souris [4]; oral, 300 mg/kg",aucune mortalité
same,mortalité,souris [14],80%
